8 molecules from patent publication US9527869B2, “Indolizine derivatives as phoshoinositide 3-kinases inhibitors” (CHIESI FARMACEUTICI S.P.A., priority 2014, dated 2016) can be followed below.

The structures appear in SMILES notation.

Common to all, as to type: biochemical
The target in one assay is T1, PI3Kδ (Homo sapiens, UniProt O00329).
T1 construct: purchased Millipore Ltd (Billerica, Mass.)
The assay can be described thus: In vitro determination of the PI3K enzyme inhibitory activity in the cell free assay (ADP-Glo Kinase Assay), PI3Kδ. The conditions noted are these: ATP 80 μM, read-out: PI3K delta inhibition. Here is the method: (§1) In vitro Determination of the PI3K Enzyme Inhibitory Activity in the Cell Free Assay
(§2) Human recombinant proteins PI3Kα, PI3Kβ, PI3Kγ and PI3Kδ were purchased from Millipore Ltd (Billerica, Mass.). Compounds were dissolved at 0.5 mM in DMSO and were tested at different concentrations for their activity against PI3Ks using the ADP-Glo™ Kinase Assay (Promega, Madison Wis.) according to the manufacturer's instructions.
(§3) Briefly, the kinase reactions were performed in 384-well white plates (Greiner Bio-One GmbH, Frickenhausen). Each well was loaded with 0.1 μl of test compounds and 2.5 μl of 2× reaction buffer (40 mM Tris pH7.5, 0.5 mM EGTA, 0.5 mM Na3VO4, 5 mM β-glycerophosphate, 0.1 mg/ml BSA, 1 mM DTT), containing 50 μM PI and PS substrates (L-α-phosphatidylinositol sodium salt and L-α-phosphatidyl-L-serine, Sigma-Aldrich, St. Louis Mo.) and the PI3K recombinant proteins (PI3Kγ 0.25 ng/μl, PI3Kδ 1 ng/μl, PI3Kα 0.125 ng/μl, PI3Kβ 1 ng/μl).
(§4) The reactions were started by adding 2.5 μl of 2×ATP solution to each well (final concentrations: PI3Kγ ATP 30 μM; PI3Kδ ATP 80 μM; PI3KαATP 50 μM; PI3Kβ ATP 100 μM) and incubated for 60 min at room temperature. Subsequently, each kinase reaction was incubated for 40 min with 5 μl ADP-Glo™ Reagent, allowing depletion of unconsumed ATP. Then, the Kinase Detection Reagent (10 μl) was added in each well to convert ADP to ATP and to allow the newly synthesized ATP to be measured using a luciferase/luciferin reaction. Following 60 min incubation, the luminescence signal was measured using a Wallac EnVision® multilabel reader (PerkinElmer, Waltham Mass.).
(§5) Curve fitting and IC50 calculation were carried out using a four-parameter logistic model in XLfit (IDBS, Guilford, UK) for Microsoft Excel (Microsoft, Redmont, Wash.).

The next assay addresses T2, PI3Kα (Homo sapiens, UniProt P42336).
T2 construct: purchased Millipore Ltd (Billerica, Mass.)
The assay can be described thus: In vitro determination of the PI3K enzyme inhibitory activity in the cell free assay (ADP-Glo Kinase Assay), PI3Kα. The conditions noted are these: ATP 50 μM, read-out: PI3K alpha inhibition. Here is the method: as §1, §2, §3, §4, §5
A general note: ADP-Glo first removes unused ATP, then detects ADP through luciferase.

The target of another assay is T3, PI3Kβ (Homo sapiens, UniProt P42338).
T3 construct: purchased Millipore Ltd (Billerica, Mass.)
T3 sequence (P42338 whole entry): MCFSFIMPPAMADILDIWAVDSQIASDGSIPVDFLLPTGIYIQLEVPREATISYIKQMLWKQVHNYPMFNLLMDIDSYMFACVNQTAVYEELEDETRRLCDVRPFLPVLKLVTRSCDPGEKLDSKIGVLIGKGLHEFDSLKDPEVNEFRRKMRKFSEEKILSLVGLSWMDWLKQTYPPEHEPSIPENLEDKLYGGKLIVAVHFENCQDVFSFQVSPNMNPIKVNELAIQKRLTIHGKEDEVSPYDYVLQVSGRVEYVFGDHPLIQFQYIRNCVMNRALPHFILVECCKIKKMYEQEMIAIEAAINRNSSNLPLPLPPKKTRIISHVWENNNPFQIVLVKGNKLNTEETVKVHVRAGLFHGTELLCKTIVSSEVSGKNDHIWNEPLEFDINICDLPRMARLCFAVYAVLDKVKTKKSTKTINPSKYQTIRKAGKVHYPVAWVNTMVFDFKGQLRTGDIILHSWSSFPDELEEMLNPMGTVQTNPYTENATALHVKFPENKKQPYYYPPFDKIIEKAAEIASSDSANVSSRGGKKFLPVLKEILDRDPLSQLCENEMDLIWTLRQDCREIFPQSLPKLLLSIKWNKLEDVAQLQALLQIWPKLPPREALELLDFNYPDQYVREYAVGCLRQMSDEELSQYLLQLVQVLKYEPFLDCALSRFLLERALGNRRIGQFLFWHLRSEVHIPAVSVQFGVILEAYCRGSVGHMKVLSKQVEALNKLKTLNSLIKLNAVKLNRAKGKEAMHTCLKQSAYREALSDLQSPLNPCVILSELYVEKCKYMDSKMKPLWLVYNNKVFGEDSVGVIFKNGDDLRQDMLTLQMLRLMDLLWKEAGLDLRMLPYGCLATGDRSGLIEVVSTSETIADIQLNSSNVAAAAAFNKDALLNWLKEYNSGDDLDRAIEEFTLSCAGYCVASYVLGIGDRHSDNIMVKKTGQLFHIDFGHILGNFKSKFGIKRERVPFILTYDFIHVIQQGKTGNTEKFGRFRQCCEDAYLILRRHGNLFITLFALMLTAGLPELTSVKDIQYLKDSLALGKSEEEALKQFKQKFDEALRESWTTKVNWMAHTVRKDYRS
T3 sequence (P27986 whole entry partner): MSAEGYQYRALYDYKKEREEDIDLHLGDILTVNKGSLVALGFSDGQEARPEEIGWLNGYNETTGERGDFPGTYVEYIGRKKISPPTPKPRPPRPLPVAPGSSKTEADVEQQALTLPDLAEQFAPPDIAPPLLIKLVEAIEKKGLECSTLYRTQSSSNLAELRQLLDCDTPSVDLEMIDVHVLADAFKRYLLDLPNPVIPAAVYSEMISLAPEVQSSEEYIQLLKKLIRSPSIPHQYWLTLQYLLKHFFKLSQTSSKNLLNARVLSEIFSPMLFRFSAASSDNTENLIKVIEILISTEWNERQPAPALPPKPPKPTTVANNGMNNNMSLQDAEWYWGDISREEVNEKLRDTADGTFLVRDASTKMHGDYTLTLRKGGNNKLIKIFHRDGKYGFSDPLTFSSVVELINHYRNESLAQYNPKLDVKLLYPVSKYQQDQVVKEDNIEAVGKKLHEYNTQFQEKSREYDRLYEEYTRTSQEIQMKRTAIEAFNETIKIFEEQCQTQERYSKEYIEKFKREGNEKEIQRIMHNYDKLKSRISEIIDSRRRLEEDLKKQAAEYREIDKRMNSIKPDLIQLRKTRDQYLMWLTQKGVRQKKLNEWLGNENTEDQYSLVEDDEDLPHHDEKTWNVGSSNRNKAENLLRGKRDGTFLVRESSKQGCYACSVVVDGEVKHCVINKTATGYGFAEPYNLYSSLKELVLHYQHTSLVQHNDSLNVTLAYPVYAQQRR
The assay can be described thus: In vitro determination of the PI3K enzyme inhibitory activity in the cell free assay (ADP-Glo Kinase Assay), PI3Kβ. The conditions noted are these: ATP 100 μM, read-out: PI3K beta inhibition. As to the method:
as §1, §2, §3, §4, §5

The target in a further assay is T4, PI3Kγ (Homo sapiens, UniProt P48736).
T4 construct: purchased Millipore Ltd (Billerica, Mass.)
T4 sequence (P48736 whole entry): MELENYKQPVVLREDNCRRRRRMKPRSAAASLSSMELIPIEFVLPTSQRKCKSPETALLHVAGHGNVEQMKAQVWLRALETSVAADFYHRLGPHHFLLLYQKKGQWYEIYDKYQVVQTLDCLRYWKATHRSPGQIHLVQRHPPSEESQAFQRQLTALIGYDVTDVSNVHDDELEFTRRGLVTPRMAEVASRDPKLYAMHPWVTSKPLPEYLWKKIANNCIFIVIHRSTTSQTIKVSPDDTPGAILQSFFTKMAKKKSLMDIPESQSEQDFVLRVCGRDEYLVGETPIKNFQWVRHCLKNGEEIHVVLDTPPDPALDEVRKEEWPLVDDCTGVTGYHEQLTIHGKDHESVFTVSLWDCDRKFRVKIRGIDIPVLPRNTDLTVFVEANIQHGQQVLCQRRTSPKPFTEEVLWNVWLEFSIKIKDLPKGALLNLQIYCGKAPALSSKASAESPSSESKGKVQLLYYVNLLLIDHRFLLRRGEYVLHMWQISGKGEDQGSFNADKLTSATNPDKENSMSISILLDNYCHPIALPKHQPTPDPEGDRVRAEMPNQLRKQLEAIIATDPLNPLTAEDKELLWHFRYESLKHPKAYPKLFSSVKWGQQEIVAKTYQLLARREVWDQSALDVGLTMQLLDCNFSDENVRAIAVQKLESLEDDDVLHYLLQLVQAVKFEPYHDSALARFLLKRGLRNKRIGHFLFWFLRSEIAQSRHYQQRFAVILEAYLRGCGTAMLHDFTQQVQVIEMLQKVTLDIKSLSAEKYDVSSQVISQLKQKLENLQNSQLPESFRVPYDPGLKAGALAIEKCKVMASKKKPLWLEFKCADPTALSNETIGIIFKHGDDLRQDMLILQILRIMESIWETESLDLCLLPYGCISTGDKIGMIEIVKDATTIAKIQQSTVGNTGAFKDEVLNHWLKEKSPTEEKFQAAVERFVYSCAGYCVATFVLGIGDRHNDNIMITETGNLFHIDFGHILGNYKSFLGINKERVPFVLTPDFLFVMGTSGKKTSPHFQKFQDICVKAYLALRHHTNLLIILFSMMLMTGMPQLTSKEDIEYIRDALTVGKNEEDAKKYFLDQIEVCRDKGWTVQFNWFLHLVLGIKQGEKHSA
Kind of assay: In vitro determination of the PI3K enzyme inhibitory activity in the cell free assay (ADP-Glo Kinase Assay), PI3Kγ. The conditions noted are these: ATP 30 μM, read-out: PI3K gamma inhibition. Here is the method:
as §1, §2, §3, §4, §5

T1 sequence (O00329 whole entry): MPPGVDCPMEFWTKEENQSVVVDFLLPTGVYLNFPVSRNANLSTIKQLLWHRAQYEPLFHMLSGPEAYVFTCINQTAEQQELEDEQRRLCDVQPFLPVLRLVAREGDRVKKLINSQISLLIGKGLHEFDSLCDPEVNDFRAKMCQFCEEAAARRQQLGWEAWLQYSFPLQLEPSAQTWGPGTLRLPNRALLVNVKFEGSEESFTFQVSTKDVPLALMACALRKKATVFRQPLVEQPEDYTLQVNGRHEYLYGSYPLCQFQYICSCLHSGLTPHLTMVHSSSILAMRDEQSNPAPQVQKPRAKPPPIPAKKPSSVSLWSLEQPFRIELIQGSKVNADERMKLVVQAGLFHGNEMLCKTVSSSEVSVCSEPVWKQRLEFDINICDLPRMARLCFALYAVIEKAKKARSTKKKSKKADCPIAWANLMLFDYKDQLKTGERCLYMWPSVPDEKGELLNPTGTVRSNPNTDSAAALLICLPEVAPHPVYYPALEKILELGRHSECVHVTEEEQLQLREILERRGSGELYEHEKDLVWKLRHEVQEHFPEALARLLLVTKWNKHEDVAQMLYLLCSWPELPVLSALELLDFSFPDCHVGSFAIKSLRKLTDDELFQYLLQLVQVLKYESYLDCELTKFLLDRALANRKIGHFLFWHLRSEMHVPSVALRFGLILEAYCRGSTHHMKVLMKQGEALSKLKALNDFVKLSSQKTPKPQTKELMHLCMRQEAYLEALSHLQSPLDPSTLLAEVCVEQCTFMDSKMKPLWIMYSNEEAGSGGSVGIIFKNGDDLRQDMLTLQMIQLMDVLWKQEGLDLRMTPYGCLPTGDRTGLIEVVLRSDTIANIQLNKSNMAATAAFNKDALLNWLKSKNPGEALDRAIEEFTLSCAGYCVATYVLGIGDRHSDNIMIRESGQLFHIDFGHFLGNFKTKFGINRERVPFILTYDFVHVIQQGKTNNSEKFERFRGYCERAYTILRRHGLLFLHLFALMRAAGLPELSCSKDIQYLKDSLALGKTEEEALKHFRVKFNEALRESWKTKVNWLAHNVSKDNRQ
T1 sequence (P27986 whole entry partner): as the sequence (P27986 whole entry partner) above
T2 sequence (P42336 whole entry): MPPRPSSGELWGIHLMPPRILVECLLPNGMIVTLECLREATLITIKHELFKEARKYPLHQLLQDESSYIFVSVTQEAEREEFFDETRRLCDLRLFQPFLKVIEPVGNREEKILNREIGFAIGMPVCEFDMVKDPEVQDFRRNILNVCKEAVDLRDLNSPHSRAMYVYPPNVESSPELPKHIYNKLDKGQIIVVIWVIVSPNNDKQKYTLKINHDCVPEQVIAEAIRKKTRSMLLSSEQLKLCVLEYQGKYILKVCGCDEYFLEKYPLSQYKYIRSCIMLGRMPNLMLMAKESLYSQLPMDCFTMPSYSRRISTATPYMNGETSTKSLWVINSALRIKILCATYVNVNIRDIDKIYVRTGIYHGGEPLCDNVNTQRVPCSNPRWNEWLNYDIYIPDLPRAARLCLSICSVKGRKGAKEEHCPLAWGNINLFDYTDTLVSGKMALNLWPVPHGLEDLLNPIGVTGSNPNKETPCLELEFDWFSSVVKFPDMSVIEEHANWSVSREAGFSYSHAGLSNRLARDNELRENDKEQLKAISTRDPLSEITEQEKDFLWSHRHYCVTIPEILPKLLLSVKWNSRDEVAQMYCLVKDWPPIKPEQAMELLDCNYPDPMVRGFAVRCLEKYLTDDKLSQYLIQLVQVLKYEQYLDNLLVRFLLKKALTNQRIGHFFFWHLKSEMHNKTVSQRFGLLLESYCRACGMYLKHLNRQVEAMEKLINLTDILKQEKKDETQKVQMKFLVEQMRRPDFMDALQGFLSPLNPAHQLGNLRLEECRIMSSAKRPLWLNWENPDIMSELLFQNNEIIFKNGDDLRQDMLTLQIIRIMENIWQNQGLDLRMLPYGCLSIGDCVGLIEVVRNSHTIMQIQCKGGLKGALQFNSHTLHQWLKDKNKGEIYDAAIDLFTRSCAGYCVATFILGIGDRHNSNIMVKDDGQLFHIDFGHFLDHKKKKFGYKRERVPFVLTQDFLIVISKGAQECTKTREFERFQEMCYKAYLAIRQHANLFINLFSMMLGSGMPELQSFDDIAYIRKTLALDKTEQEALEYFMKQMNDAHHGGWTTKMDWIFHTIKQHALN
T2 sequence (P27986 whole entry partner): as the sequence (P27986 whole entry partner) above

In the case of `CC(c1cc2ccccn2c1-c1cccc(C2CCCN2C)c1)n1nc(-c2cc(O)cc(F)c2)c2c(N)ncnc21` (mixture of isomers) [Example 118, 3-[4-amino-1-(1-{3-[3-(1-methylpyrrolidin-2-yl)phenyl]indolizin-2-yl}ethyl)-1H-pyrazolo[3,4-d]pyrimidin-3-yl]-5-fluorophenol], the IC50 is 10 to 1000 nM on PI3Kδ, over 1000 nM at PI3Kα, 10 to 1000 nM at PI3Kβ and over 1000 nM at PI3Kγ.

With `CC(c1cc2ccccn2c1-c1ccccn1)n1nc(-c2cc(O)cc(F)c2)c2c(N)ncnc21` (racemic) [Example 79, 3-(4-amino-1-{1-[3-(pyridin-2-yl)indolizin-2-yl]ethyl}-1H-pyrazolo[3,4-d]pyrimidin-3-yl)-5-fluorophenol], the IC50 was under 10 nM at PI3Kδ, 10 to 1000 nM on PI3Kα, 10 to 1000 nM at PI3Kβ and 10 to 1000 nM on PI3Kγ.

As for `CC(c1cc2ccccn2c1-c1ccncc1)n1nc(-c2cc(O)cc(F)c2)c2c(N)ncnc21` (racemic) [Example 82, 3-(4-amino-1-{1-[3-(pyridin-4-yl)indolizin-2-yl]ethyl}-1H-pyrazolo[3,4-d]pyrimidin-3-yl)-5-fluorophenol], the IC50 was under 10 nM at PI3Kδ, over 1000 nM on PI3Kα, 10 to 1000 nM at PI3Kβ and 10 to 1000 nM at PI3Kγ.

As to `CC(c1cc2ccccn2c1-c1cccc(CN(C)C)c1)n1nc(-c2cc(O)cc(F)c2)c2c(N)ncnc21` (racemic) [Example 93, 3-{4-amino-1-[1-(3-{3-[(dimethylamino)methyl]phenyl}indolizin-2-yl)ethyl]-1H-pyrazolo[3,4-d]pyrimidin-3-yl}-5-fluorophenol], the IC50 at PI3Kδ, on PI3Kα, on PI3Kβ and on PI3Kγ was 10 to 1000 nM throughout.

Regarding `C[C@@H](c1cc2ccccn2c1-c1ccccn1)n1nc(-c2cc(O)cc(F)c2)c2c(N)ncnc21` (single isomer, unassigned) [Example 80, 3-(4-amino-1-{1-[3-(pyridin-2-yl)indolizin-2-yl]ethyl}-1H-pyrazolo[3,4-d]pyrimidin-3-yl)-5-fluorophenol], the IC50 on PI3Kδ is under 10 nM; at PI3Kα, 10 to 1000 nM; at PI3Kβ, 10 to 1000 nM; on PI3Kγ it was 10 to 1000 nM.

With `C[C@@H](c1cc2ccccn2c1-c1ccccn1)n1nc(-c2cc(O)cc(F)c2)c2c(N)ncnc21` (single isomer, unassigned) [Example 81, 3-(4-amino-1-{1-[3-(pyridin-2-yl)indolizin-2-yl]ethyl}-1H-pyrazolo[3,4-d]pyrimidin-3-yl)-5-fluorophenol], the IC50 on PI3Kδ is 10 to 1000 nM; on PI3Kα it was over 1000 nM; on PI3Kβ, over 1000 nM; on PI3Kγ it was over 1000 nM.

As to `C[C@@H](c1cc2ccccn2c1-c1ccncc1)n1nc(-c2cc(O)cc(F)c2)c2c(N)ncnc21` (single isomer, unassigned) [Example 83, 3-(4-amino-1-{1-[3-(pyridin-4-yl)indolizin-2-yl]ethyl}-1H-pyrazolo[3,4-d]pyrimidin-3-yl)-5-fluorophenol], the IC50 was under 10 nM on PI3Kδ, 10 to 1000 nM at PI3Kα, 10 to 1000 nM on PI3Kβ and 10 to 1000 nM on PI3Kγ.

As to `C[C@@H](c1cc2ccccn2c1-c1ccncc1)n1nc(-c2cc(O)cc(F)c2)c2c(N)ncnc21` (single isomer, unassigned) [Example 84, 3-(4-amino-1-{1-[3-(pyridin-4-yl)indolizin-2-yl]ethyl}-1H-pyrazolo[3,4-d]pyrimidin-3-yl)-5-fluorophenol], the IC50 at PI3Kδ was 10 to 1000 nM; at PI3Kα, over 1000 nM; on PI3Kβ it was over 1000 nM; on PI3Kγ, over 1000 nM.
